Results taken from patent US8222414B2, “Indole compounds as an inhibitor of cellular necrosis” (LG Life Sciences Ltd., priority 2007, dated 2012).

Each compound was assayed on primary hepatocytes isolated from rats (assay: Cell protective effects against doxorubicin in hepatocytes (WST-1 cell viability)). Conditions: Hepatocyte; primary rat hepatocytes pretreated with compound for 30 min, then doxorubicin; viability by WST-1 after 24-48 h.
Assay type: cell-based
Method: Various endogenous/exogenous attacks on the cells trigger the mechanisms of cell death which is broadly classified into two types, i.e. apoptosis or necrosis. Using these cell death mechanisms, in the present experimental example, primacy hepatocytes isolated from rats were treated with drugs which were clinically shown to result in serious side-effects of hepatocyte toxicity or various chemicals which derive cell death, and the compounds synthesized in the Examples were estimated for their hepatocyte protective effects, after 24-48 h. The substances used to derive hepatocyte death include CCl4, ActD, H2O2, doxorubicin, anti-Fas Ab/Actinomycin D, acetaminophen, EtOH, CdCl2, palmitate, stearate, cyclophosphamide, terfenadine, diclofenac, simvastatin, and adefovir. Primary hepatocytes were isolated using the method of Seglen P O (Experimental Cell Research 74 (1972) pp 450-454). Briefly, hepatocytes were isolated according to the two-step collagenase perfusion method, and dead cells were removed by low speed (500 rpm) centrifugation for 10 min using percoll gradient (Kreamer B L etc, In Vitro Cellular & Developmental Biology 22 (1986) pp 201-211). During this step, the viability of cells was maintained 90% or above. The cells were suspended in HepatoZYME media (Gibco BRL), and the number of cells was counted. 1.5×10^4 cells in 100 μl were placed into the collagen-coated 96-well plate (BD biocoat), and adhered on the bottom for 3-4 h.
In order to assess the hepatocyte protective effect, above adhered cells were pretreated with the Example compounds for 30 min. At this time, the concentration of the Example compounds were serially diluted by 2-fold or 3-fold over 5 steps starting from 30 uM, 10 uM or 1 uM depending on the experiments, and the final concentration of DMSO was adjusted to 0.2%. 30 min after the treatment by compounds, cells were treated by the substances deriving hepatocyte death or hepatotoxic drugs at the concentrations indicated in Table 1. After 24-48 h, the viability of cells was determined to estimate the hepatocyte protective effects. The viability of cells was determined using WST-1 (MK-400, […]) method by the absorbance at 440 nm. Hepatocyte protective effects of the Example compounds were represented by “EC50” which was calculated from measured values. “EC50” herein means the concentration of the compound at which 50% of maximum protective effect is observed in the experiment.

`c1cc(NC2CCCC2)c2[nH]c(C3=NCCS3)cc2c1` [Example 1, Cyclopentyl-[2-(4,5-dihydro-1,3-thiazol-2-yl)-1H-indol-7-yl]-amine] and `c1cc(NC2CCNCC2)c2[nH]c(C3=NCCS3)cc2c1` [Example 7, [2-(4,5-Dihydro-thiazol-2-yl)-1H-indol-7-yl]-piperidin-4-yl-amine] cannot be ordered by EC50: over 1000 nM for the first, 1170 nM for the second.

Compared with `OC[C@@H]1CSC(c2cc3cccc(NC4CCCC4)c3[nH]2)=N1` [Example 2, [(R)-2-(7-cyclopentylamino-1H-indol-2-yl)-4,5-dihydro-1,3-thiazol-4-yl]-methanol], `OC[C@@H]1CSC(c2cc3cccc(NC4CCOCC4)c3[nH]2)=N1` [Example 51, [(R)-2-(7-(tetrahydropyran-4-yl)amino-1H-indol-2-yl)-4,5-dihydro-thiazol-4-yl]-methanol] is 6-fold higher in EC50: 100 nM for the first, 600 nM for the second.

`OCc1cc(NC2CCCC2)c2[nH]c(C3=N[C@H](CO)CS3)cc2c1` [Example 6, (R)-2-[7-cyclopentylamino-5-(hydroxymethyl)-1H-indol-2-yl]-4,5-dihydro-thiazol-4-yl-methanol] and `CN(C)Cc1cc(NC2CCCC2)c2[nH]c(C3=N[C@H](CO)CS3)cc2c1` [Example 34, [(R)-2-(5-(dimethylamino)methyl-7-cyclopentylamino-1H-indol-2-yl)-4,5-dihydro-thiazol-4-yl]-methanol] are within 1.5-fold of each other in EC50: 4930 nM for the first, 5580 nM for the second.

First: Cc1cc(NCC2CCOCC2)c2[nH]c(C3=N[C@H](CC(=O)O)CS3)cc2c1 [Example 8, [(R)-2-(5-methyl-7-(tetrahydropyran-4-yl)methylamino-1H-indol-2-yl)-4,5-dihydro-thiazol-4-yl]-acetic acid]
Second: O=C(O)C[C@H]1CSC(c2cc3cc(Cl)cc(NCC4CCOCC4)c3[nH]2)=N1 [Example 18, [(S)-2-(5-chloro-7-(tetrahydropyran-4-yl)methylamino-1H-indol-2-yl)-4,5-dihydro-thiazol-4-yl]-acetic acid]
The EC50 of the first is 5.9-fold lower: 410 nM for the first, 2420 nM for the second. The first is the more potent here.

Going from `Cc1cc(NC2CCN(C(=O)C(F)(F)F)CC2)c2[nH]c(C3=N[C@@H](CC(=O)O)CS3)cc2c1` [Example 9, [(S)-2-(5-methyl-7-(1-trifluoroacetylpiperidin-4-yl)amino-1H-indol-2-yl)-4,5-dihydro-thiazol-4-yl]-acetic acid] to `CC(=O)N1CCC(Nc2cc(C)cc3cc(C4=N[C@@H](CC(=O)O)CS4)[nH]c23)C1` (stereo partly drawn) [Example 13, [(S)-2-(5-methyl-7-(1-acetylpyrrolidin-3-yl)amino-1H-indol-2-yl)-4,5-dihydro-thiazol-4-yl]-acetic acid], the EC50 falls from over 2000 nM to 1130 nM. The second is the more potent here.

First: O=C(O)C[C@H]1CSC(c2cc3cccc(NCC4CCCCO4)c3[nH]2)=N1 (stereo partly drawn) [Example 10, 2-[(S)-2-(7-(tetrahydropyran-2-yl)methylamino-1H-indol-2-yl)-4,5-dihydro-thiazol-4-yl]-acetic acid]
Second: O=C(O)C[C@H]1CSC(c2cc3cccc(NCC4CCOCC4)c3[nH]2)=N1 [Example 12, [(S)-2-(7-(tetrahydropyran-4-yl)methylamino-1H-indol-2-yl)-4,5-dihydro-thiazol-4-yl]-acetic acid]
The EC50 of the first is 5.4-fold lower: 600 nM for the first, 3250 nM for the second.

Compared with `O=C(O)C[C@H]1CSC(c2cc3cccc(NC4CCOCC4)c3[nH]2)=N1` [Example 11, [(S)-2-(7-(tetrahydropyran-4-yl)amino-1H-indol-2-yl)-4,5-dihydro-thiazol-4-yl]-acetic acid], `Cc1cc(NC2CCOCC2)c2[nH]c(C3=N[C@@H](CC(=O)O)CS3)cc2c1` [Example 25, [(S)-2-(5-methyl-7-(tetrahydropyran-4-yl)amino-1H-indol-2-yl)-4,5-dihydro-thiazol-4-yl]-acetic acid] is 3.7-fold lower in EC50: 2800 nM for the first, 760 nM for the second.

Compared with `O=C(O)C[C@@H]1CSC(c2cc3cc(Oc4ccccc4)cc(NCC4CCOCC4)c3[nH]2)=N1` [Example 15, [(R)-2-(5-phenoxy-7-(tetrahydropyran-4-yl)methylamino-1H-indol-2-yl)-4,5-dihydro-thiazol-4-yl]-acetic acid], `O=C(O)C[C@H]1CSC(c2cc3cc(Oc4ccccc4)cc(NC4CCOCC4)c3[nH]2)=N1` [Example 16, [(S)-2-(5-phenoxy-7-(tetrahydropyran-4-yl)amino-1H-indol-2-yl)-4,5-dihydro-thiazol-4-yl]-acetic acid] is 2.1-fold higher in EC50: 600 nM for the first, 1290 nM for the second. The first is the more potent here.

Going from `Cc1cc(NC2CCC2)c2[nH]c(C3=N[C@@H](CC(=O)O)CS3)cc2c1` [Example 19, [(S)-2-(5-methyl-7-cyclobutylamino-1H-indol-2-yl)-4,5-dihydro-thiazol-4-yl]-acetic acid] to `Cc1cc(NC2CCCC2)c2[nH]c(C3=N[C@@H](CC(=O)O)CS3)cc2c1` [Example 26, [(S)-2-(5-methyl-7-cyclopentylamino-1H-indol-2-yl)-4,5-dihydro-thiazol-4-yl]-acetic acid], the EC50 falls from 350 nM to 200 nM (1.8-fold). The second is the more potent here.

Going from `Cc1cc(NC2CCOC2)c2[nH]c(C3=N[C@@H](CC(=O)O)CS3)cc2c1` (stereo partly drawn) [Example 20, [(S)-2-(5-methyl-7-(tetrahydrofuran-3-yl)amino-1H-indol-2-yl)-4,5-dihydro-thiazol-4-yl]-acetic acid] to `Cc1cc(NCC2CC2)c2[nH]c(C3=N[C@@H](CC(=O)O)CS3)cc2c1` [Example 21, [(S)-2-(5-methyl-7-cyclopropylmethylamino-1H-indol-2-yl)-4,5-dihydro-thiazol-4-yl]-acetic acid], the EC50 falls from 5770 nM to 300 nM (19-fold). The second is the more potent here.

Compared with `Cc1cc(NCC2CCCC2)c2[nH]c(C3=N[C@@H](CC(=O)O)CS3)cc2c1` [Example 23, [(S)-2-(5-methyl-7-cyclopentylmethylamino-1H-indol-2-yl)-4,5-dihydro-thiazol-4-yl]-acetic acid], `CCOc1cc(NC2CCCC2)c2[nH]c(C3=N[C@@H](CC(=O)O)CS3)cc2c1` [Example 47, [(S)-2-(5-ethoxy-7-cyclopentylamino-1H-indol-2-yl)-4,5-dihydro-thiazol-4-yl]-acetic acid] is 2.6-fold higher in EC50: 140 nM for the first, 360 nM for the second.

Going from `CC1CSC(c2cc3cccc(NC4CCOCC4)c3[nH]2)=N1` (stereo not drawn) [Example 32, (Tetrahydropyran-4-yl)-[2-(4,5-dihydro-4-methyl-thiazol-2-yl)-1H-indol-7-yl]-amine] to `OC[C@@H]1CSC(c2cc3cccc(NC4CCOC4)c3[nH]2)=N1` (stereo partly drawn) [Example 52, [(R)-2-(7-(tetrahydrofuran-3-yl)amino-1H-indol-2-yl)-4,5-dihydro-thiazol-4-yl]-methanol], the EC50 falls from 2120 nM to 750 nM (2.8-fold).

First: CC(=O)Nc1cc(NC2CCCC2)c2[nH]c(C3=N[C@H](CO)CS3)cc2c1 [Example 38, [(R)-2-(5-acetylamino-7-cyclopentylamino-1H-indol-2-yl)-4,5-dihydro-thiazol-4-yl]-methanol]
Second: CCOc1cc(NC2CCCC2)c2[nH]c(C3=N[C@@H](CC(=O)OC)CS3)cc2c1 [Example 46, [(S)-2-(5-ethoxy-7-cyclopentylamino-1H-indol-2-yl)-4,5-dihydro-thiazol-4-yl]-acetic acid methyl ester]
The EC50 of the first is 5-fold higher: 2000 nM for the first, 400 nM for the second. The second is the more potent here.

Compared with `COC(=O)C[C@@H]1CSC(c2cc3cc(CN4CCCC4)cc(NC4CCCC4)c3[nH]2)=N1` [Example 40, [(R)-2-(5-(pyrrolidin-1-yl)methyl-7-cyclopentylamino-1H-indol-2-yl)-4,5-dihydro-thiazol-4-yl]-acetic acid methyl ester], `O=C(O)C[C@H]1CSC(c2cc3cc(Oc4ccccc4)cc(NC4CCCC4)c3[nH]2)=N1` [Example 50, [(S)-2-(5-phenoxy-7-cyclopentylamino-1H-indol-2-yl)-4,5-dihydro-thiazol-4-yl]-acetic acid] is 62-fold lower in EC50: 15600 nM for the first, 250 nM for the second. The second is the more potent here.

Compared with `CC(=O)N1CC[C@@H](Nc2cccc3cc(C4=N[C@H](CO)CS4)[nH]c23)C1` [Example 43, {(R)-2-[7-((3R)-1-acetylpyrrolidin-3-yl)amino-1H-indol-2-yl]-4,5-dihydro-1,3-thiazol-4-yl}-methanol], `OC[C@@H]1CSC(c2cc3cc(Oc4cccnc4)cc(NC4CCCC4)c3[nH]2)=N1` [Example 61, [(R)-2-(5-(pyridin-3-yl)oxy-7-cyclopentylamino-1H-indol-2-yl)-4,5-dihydro-thiazol-4-yl]-methanol] is lower in EC50: 1000 to 10000 nM for the first, 780 nM for the second.

Same assay, conditions: primary rat hepatocytes pretreated with compound for 30 min, then doxorubicin; viability by WST-1 after 24-48 h

In order of falling EC50:
1. CN(c1cc(F)cc2cc(C3=N[C@H](CO)CS3)[nH]c12)C1CCCC1 [Example 45, {(R)-2-[7-(methyl-cyclopentyl)amino-5-fluoro-1H-indol-2-yl]-4,5-dihydro-1,3-thiazol-4-yl}-methanol]  1320 nM
2. CCOc1cc(NC2CCCC2)c2[nH]c(C3=N[C@@H](CCO)CS3)cc2c1 [Example 48, [(S)-2-(5-ethoxy-7-cyclopentylamino-1H-indol-2-yl)-4,5-dihydro-thiazol-4-yl]-ethanol]  200 nM
3. Cc1cc(NC2CCOCC2)c2[nH]c(C3=N[C@@H](CCO)CS3)cc2c1 [Example 24, [(S)-2-(5-methyl-7-(tetrahydropyran-4-yl)amino-1H-indol-2-yl)-4,5-dihydro-thiazol-4-yl]-ethanol]  130 nM
